From BindingDB's records for doi:10.7270/Q2PC30S2 (Nmmlsc, 2010) come the findings set out here.

The experiment concerns the target Ras-related C3 botulinum toxin substrate 1 (Mus musculus, UniProt P63001). The experiment in a line: inhibitors of activated mutant Rac1 GTP binding, dose response, biochemical, multiplex, GST-Rac1 beads, Bodipy-FL-GTP, flow cytometry (AID 1339). A general note: In flow cytometry, cells or beads pass a laser one at a time.

What is called EC50 is the concentration that produces a half-maximal response. Read a low EC50 as higher potency in that assay. `CNC(=S)N/N=C1\C(=O)Nc2ccccc21` [1-methyl-3-[(2-oxoindol-3-yl)amino]thiourea] had an EC50 of 91.6 µM.
`O=C1C([N+](=O)[O-])=Cc2oc3c(c2C1/C=N/Cc1ccccc1)CCCC3` (configuration not stated) [(1Z)-3-nitro-1-[[(phenylmethyl)amino]methylidene]-6,7,8,9-tetrahydrodibenzofuran-2-one] had an EC50 of 5.79 µM.
